These results are taken from PubChem BioAssay (NCI).

Holding throughout (assay): growth of human tumour cells (NCI), 48 h
The test system of assay [1] is EKVX NSCLC.
Assay [2] concerns HS 578T breast.
Assay [3] concerns RPMI-8226 leukemia.
In assay [4] the test system is RXF 393 renal.
Assay [5] concerns SNB-19 CNS.
For assay [6], the system named is NCI-H226 lung.
Assay [7] relates to NCI-H460 lung.
Assay [8] concerns SW-620 colon.
In assay [9] the test system is HL-60(TB) leukemia.
Assay [10] relates to HOP-62 NSCLC.
Assay [11] has as its system SK-MEL-2 melanoma.
Assay [12] has as its system SNB-75 CNS.
For assay [13], the system named is SR leukemia.
The subject of assay [14] is 786-0 renal.
Assay [15] concerns A498 renal.
Assay [16] deals with A549 NSCLC.
Assay [17] relates to ACHN renal.
Assay [18] has as its system CCRF-CEM leukemia.
Assay [19] relates to COLO 205 colon.
Assay [20] has as its system DU-145 prostate.
In assay [21] the test system is HCC-2998 colon.
Assay [22] deals with HCT-116 colon.
The subject of assay [23] is HCT-15 colon.
Assay [24] has as its system HOP-92 NSCLC.
In assay [25] the test system is HT29 colon.
For assay [26], the system named is IGROV1 ovarian.
Assay [27] has as its system KM12 colon.
For assay [28], the system named is LOX IMVI melanoma.
Assay [29] concerns M14 melanoma.
Assay [30] relates to MALME-3M melanoma.
The test system of assay [31] is MCF7 breast.
For assay [32], the system named is MDA-MB-231 breast.
Assay [33] has as its system MDA-MB-435.
In assay [34] the test system is NCI-H23 lung.
In assay [35] the test system is NCI/ADR-RES ovarian.
The subject of assay [36] is OVCAR-4 ovarian.
Assay [37] deals with OVCAR-8 ovarian.
Assay [38] concerns SF-268 CNS.
The subject of assay [39] is SF-295 CNS.
Assay [40] concerns SF-539 CNS.
The subject of assay [41] is SK-MEL-28 melanoma.
Assay [42] has as its system SK-MEL-5 melanoma.
Assay [43] relates to SK-OV-3 ovarian.
The test system of assay [44] is SN12C renal.
Assay [45] relates to T-47D breast.
Assay [46] concerns TK-10 renal.
For assay [47], the system named is U251 CNS.
Assay [48] has as its system UACC-257 melanoma.
Assay [49] relates to UACC-62 melanoma.
In assay [50] the test system is UO-31 renal.

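All cell lines were grown in 96-well plates and treated with compound for 48 hours. Abbreviation: GI50, concentration required for 50% inhibition of growth. TGI denotes the concentration required for complete inhibition of growth.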

Regarding `C#C[C@]1(O)CC[C@H]2[C@@H]3CC=C4c5nc(Nc6ncccn6)sc5CC[C@]4(C)[C@H]3CC[C@@]21C`, the GI50 in assay [1] was 2.99 µM; in assay [2], 1.25 µM; in assay [3], 0.421 µM; in assay [4], 0.451 µM; in assay [5] it was 2.77 µM. The TGI in assay [1] was over 100 µM; in [2], 4.14 µM; in assay [3], 2.11 µM; in [4], 1.69 µM; in assay [5], over 100 µM.
As for `C[C@H]1[C@H](C)CC[C@]2(C(=O)OCCCC[P+](c3ccccc3)(c3ccccc3)c3ccccc3)CC[C@]3(C)C(=CC[C@@H]4[C@@]5(C)CC[C@H](OC(=O)C(Cl)Cl)C(C)(C)[C@@H]5CC[C@]43C)[C@H]12`, the GI50 in assay [6] is 0.354 µM; in [7], 0.283 µM; in assay [8], 0.349 µM. Further, the TGI worked out at 1.82 µM in assay [6], 0.975 µM in assay [7] and 1.29 µM in assay [8].
On to `[2H]C([2H])([2H])Oc1cc(F)ccc1/C=C/C(=O)/C=C(/C=C/c1ccc(F)cc1OC([2H])([2H])[2H])OB(F)F`, for which the GI50 in [9] was 1.68 µM; in [10] it was 3.11 µM; in assay [2], 5.67 µM; in assay [11] it was 2.99 µM; in [5], 3.47 µM; in [12], 2.39 µM. Moreover, the GI50 in assay [13] is 2.67 µM. In addition, the TGI in [9] is 6.67 µM; in [10] it was over 100 µM; in assay [2], over 100 µM; in assay [11], over 100 µM; in assay [5], over 100 µM; in assay [12], over 100 µM. In addition, in assay [13], the TGI is over 100 µM.
In the case of `COc1cc(C2NCCC(c3ccccc3)(c3ccccc3)N2)cc(OC)c1OC` (stereo not drawn), the TGI is over 100 µM in [14]; 88.6 µM in [15]; over 100 µM in [16]; over 100 µM in assay [17]; over 100 µM in assay [18]; 42.4 µM in [19]. Moreover, the TGI in assay [20] was over 100 µM; in assay [1], over 100 µM; in [21], 42.7 µM; in assay [22], over 100 µM; in [23], over 100 µM; in assay [9], 90.2 µM. The TGI in [10] was over 100 µM; in assay [24] it was 27.9 µM; in [2], 79.5 µM; in [25], 79.4 µM; in assay [26], over 100 µM; in [27] it was over 100 µM. The TGI in [28] was 47.7 µM; in assay [29], 27.2 µM; in [30] it was 34 µM; in [31] it was 85.8 µM; in assay [32], over 100 µM; in assay [33], over 100 µM. The TGI in assay [6] is 43.8 µM; in assay [34] it was over 100 µM; in assay [7], over 100 µM; in assay [35] it was over 100 µM; in [36], over 100 µM; in [37], over 100 µM. The TGI was over 100 µM in assay [4]; over 100 µM in assay [38]; 35.8 µM in [39]; 29.7 µM in assay [40]; 35.6 µM in [41]; 32.1 µM in [42]. In addition, the TGI in assay [43], in [44], in [5], in [12], in assay [13] and in assay [8] was over 100 µM each time. For the same compound, the TGI in [45] is over 100 µM; in assay [46], over 100 µM; in assay [47], over 100 µM; in assay [48] it was 33.9 µM; in assay [49], over 100 µM; in assay [50], 66.2 µM.
